Reference: patent US9700638B2, “Near infrared label and methods of use thereof” (priority 2013, dated 2017)
Where two headings read alike, the source gives them in different places.

How the values were obtained:
[1] = reference chromophores with known molar absorptivity; cited from earlier work
[2] = Light absorption / molar absorptivity of DDAO and 7-aminoDDAO derivatives; assay type: physicochemical; conditions: for light absorption maximum: FIG. 4, 50% MeOH
Procedure: (§1) The molar extinction of 7-aminoDDAO (55 000 M-1 cm-1) was determined by the attachment of reference chromophores with known molar absorptivity (Table 1). Light absorption spectra of the labeled caspofungin and posaconazole derivatives were close to superposition of those for the 7-(4-aminobutyl)amino-DDAO and the corresponding drugs, which is illustrated in FIG. 4 on the example of posaconazole derivative. […] Thus, excitation and emission maxima for DDAO were 653 nm and 660 nm correspondingly, while for 7-(4-aminobutyl)amino-DDAO they shifted to 671 nm and 679 nm correspondingly. […] Remarkably, the shape of the excitation spectrum curve for ionized form of DDAO was the same in 50% and 100% methanol.

[3] = Chemical and photochemical stability of the fluorophore; assay type: physicochemical
[4] = Fluorescence spectra, relative brightness and quantum yield in various solvents; assay type: physicochemical; design: brightness: unit not given here; conditions: for QY (50% MeOH), quantum yield / RB (50% MeOH), relative brightness / QY (MeOH), quantum yield / RB (MeOH), relative brightness / QY (H20), quantum yield / RB (H2O), relative brightness: 1 μM; for increase of light emission in 50% methanol compared to water: 50% methanol vs water; for QY (H20), quantum yield / RB (H2O), relative brightness: H2O; for increase of emission in 100% methanol compared to 50% methanol: 100% methanol vs 50% methanol
Procedure: as §1
However, posaconazole derivative behaved differently. […] The suppression of the fluorophore light emission in posaconazole derivative is likely due to the presence of extended light-absorbing moiety that can stack to the fluorophore, causing contact quenching (FIG. 7). […] in fluorescence is expected upon interaction of the labeled drug with its cellular target, whereby stacking interactions of the fluorophore with the drug moiety have to be destroyed (FIG. 7B). This beneficial “signaling” effect is expected to greatly increase the contrast of imaging by minimizing the background signal of non-bound compound, which remains “dark”.
Table 2 illustrates light emission properties of DDAO-based diagnostic probes and reference compounds, and presents the data on quantum yield and brightness for 7-aminoDDAO compound at various conditions. These parameters were determined using a reference fluorophore Cy5.5, (which has the excitation and emission maxima nearly identical to those for 7-aminoDDAO) and published data for original DDAO fluorophore. […] This was perhaps due to higher light absorptivity and higher quantum yield of the amino-derivative. The difference in brightness further increased in 50% methanol (21 000 and 9000 correspondingly).

Candida albicans = experiment: Imaging of fungal infection in mice kidneys by whole-body fluorescence imaging; assay type: in vivo
Procedure: Mice were infected via intravenous inoculation with 5*10^5 CFU of wild type Candida albicans and an infection that occurs most prominently in the kidneys. After 48 hours post infection, a fixed concentration of 0.12 ug/mL of CSF-DDAO is added via tail vein injection at 0, 2, 4 and 8 hours to assess the optimal time for visualization of the infection. At each time point, the mice were imaged in a non-invasive whole-body animal imaging system to detect fluorescence energy. Animals infected with Candida albicans show proliferation of the fungal infection in the kidneys after 48 hours. […] Maximum labeling occurred at 8 hours. […] At the same time no signal was detected in uninfected and/or untreated organs.

[5] = listed as 7-(4-aminobutyl)amino-DDAO

Row | Compound | Molar absorption for attached compounds [1] | molar absorbance [2] | ε [2] | light absorption maximum [2] | brightness [4] | pH dependence of the fluorophore [4] | QY (50% MeOH), quantum yield [4] | RB (50% MeOH), relative brightness [4] | increase of light emission in 50% methanol compared to water [4] | QY (MeOH), quantum yield ([4]; 100% MeOH) | RB (MeOH), relative brightness ([4]; 100% MeOH) | QY (H20), quantum yield [4] | RB (H2O), relative brightness [4] | increase of emission in 100% methanol compared to 50% methanol [4] | further results
1 | Cc1cc(C)n2c1C=C1C=CC(CCC(=O)O)=[N+]1[B-]2(F)F [BODIPY-FL] | 82,000 M^−1cm^−1 | – | – | – | – | – | – | – | – | – | – | – | – | – | –
2 | CC1(C)C2=C(Cl)C(=O)C(Cl)=CC2=Nc2ccc(NCCCCN)cc21 [DDAO NH2, DDAO—NH—(CH2)4—NH2] | – | 53,000 | 53,000 M^−1cm^−1 | 673 nm | 6,000 | pH-independent | 0.40 | 21,000 | ca. 2.5 fold | 0.25 | 13,000 | 0.19 | 10,000 | – | Calculated molar absorption for DDAO residue ([2]; attached compound BODIPY-FL): 70,000 M^−1cm^−1; Calculated molar absorption for DDAO residue ([2]; attached compound DNP): 32,000 M^−1cm^−1; Calculated molar absorption for DDAO residue ([2]; attached compound Posaconazole): 59,000 M^−1cm^−1; Calculated molar absorption for DDAO residue, Average ([2]; average over three attached chromophores): 53,000 M^−1cm^−1; molar extinction ([2]; determined by attachment of reference chromophores): 55 000 M-1 cm-1; chemical and photochemical stability [3]: chemically and photochemically stable; long-wavelength emission range [4]: 640-700 nm; RB (50% MeOH), relative brightness ([4]; listed as 7-aminoDDAO): 21 000; emission maximum in 100% MeOH ([4]; 100% MeOH): 670 nm; excitation maximum in 100% MeOH ([4]; 100% MeOH): 620 nm; drop of light emission intensity in 100% MeOH ([4]; 100% MeOH vs 50% methanol): 1.7 fold; RB (MeOH), relative brightness ([4]; 100% MeOH, listed as 7-aminoDDAO): 13 000; RB (H2O), relative brightness ([4]; listed as 7-aminoDDAO): 10 000; emission maximum [4, 5]: 679 nm; excitation maximum [4, 5]: 671 nm; emission maximum ([4]; listed as 7-aminoDDAO): 680 nm; emission maximum ([4]; listed as 7-aminoDDAP): 680 nm; excitation maximum ([4]; listed as 7-aminoDDAP): 670 nm
3 | CC1(C)C2=C(Cl)C(=O)C(Cl)=CC2=Nc2ccc(O)cc21 [DDAO, 7-hydroxy-9H-(1,3-dichloro-9,9-dimethylacridin-2-one), reference compound] | – | 48,000 | 48,000 M^−1cm^−1 | 653 nm | 3,600 | pH-dependent | 0.19 | 9000 | – | 0.25 | 12 000 | 0.125 | 6 000 | 1.3 fold | emission maximum [4]: 660 nm; excitation maximum [4]: 653 nm; RB (50% MeOH), relative brightness ([4]; listed as DDAO (pH 9.0)): 9,000; RB (MeOH), relative brightness ([4]; 100% MeOH, listed as DDAO (pH 9.0)): 12,000; RB (H2O), relative brightness ([4]; listed as DDAO (pH 9.0)): 6,000
4 | CC[C@@H]([C@H](C)O)n1ncn(-c2ccc(N3CCN(c4ccc(OC[C@@H]5CO[C@@](Cn6cncn6)(c6ccc(F)cc6F)C5)cc4)CC3)cc2)c1=O [Posaconazole] | 34,000 M^−1cm^−1 | – | – | – | – | – | – | – | – | – | – | – | – | – | –
5 | DDAO—NH—(CH2)4—NCS-Caspofungin [DDAO Casp] | – | – | 53,000 M^−1cm^−1 | – | – | – | 0.26 | 13,800 | 2 fold | 0.42 | 22,000 | 0.11 | 6,000 | 1.3 fold | fluorescent signal of the infected organ (kidney) (Candida albicans; C. albicans infected mice kidney, FIG. 8): bright fluorescent signal; labeling of cells in the target organs over time (Candida albicans; infected mice, whole body imaging at 0, 2, 4 and 8 hours): progressive labeling of cells in the target organs over time; time of maximum labeling after probe injection (Candida albicans; mice 48 h post i.v. infection with C. albicans, 0.12 ug/mL via tail vein, whole body imaging): 8 h; accumulation in the kidneys in the absence of infection (Candida albicans; uninfected mice): did not accumulate in the kidneys
